Reference: PMC10082830, “A tailored tetravalent peptide displays dual functions to inhibit amyloid β production and aggregation” (Communications Biology, 2023)
pKd: −log10 of the molar value. Bridge positions count the residues as written; N and C are the ends. Square brackets hold non-standard residues; d marks the D form. Peptide text beside a SMILES is read from it. I, II: the chains in the order shown. * marks the point of attachment. Cbz = O=C(OCc1ccccc1)*; Ahx = NCCCCCC(=O)O

Columns and labels:
[1] = system: γ-cleavage of NotchΔE in 7WD10-NotchΔE cells; test: γ-Secretase assay in cells (NotchΔE cleavage); format: cell-based, Chinese Hamster; details: 48 h, cell lysates, western blot with anti-Myc antibody; DAPT 10 µM
Experimental: (§1) 7WD10 cells were treated with vehicle control or LME-tet at the indicated concentrations for 48 h. Cell lysates were analyzed by western blot. b Effect of LME-tet on production of extracellular sAPPα and sAPPβ Schematic showing α- and β-cleavage sites (top). 7WD10 cells were treated as in (a) and sAPPα and sAPPβ in culture medium were analyzed by western blot (bottom left and right panels, respectively). a, b APP and sAPPα were detected using anti-APP antibody 6E10, and sAPPβ was detected using anti-sAPPβ antibody. Data are graphed as the percentage of the control value, showing the mean ± SE; n = 3–4. Significance vs. vehicle was calculated by ANOVA, followed by one-sided Dunnett’s test; *P < 0.05, **P < 0.01, ***P < 0.001. c Effect of LME-tet on β-cleavage of β-galactoside α-2,6- sialyltransferase 1 (St6gal1) and γ-cleavage of NotchΔE. 7WD10-NotchΔE-St6gal1 cells were treated with LME-tet at the indicated concentrations and β-secretase inhibitor II (βi; 10 µM) for 48 h; culture medium was analyzed by western blot using anti-St6gal1 antibody (left panel). 7WD10-NotchΔE cells were treated with LME-tet at the indicated concentrations and γ-secretase inhibitor DAPT (γi; 10 µM) for 48 h; cell lysates were analyzed by western blot using anti-Myc antibody (right panel). […] Aβ33-FLAG (left) and Aβ (right) were measured by western blot using anti-Aβ antibody 82E1. […]

Aβ40 = target: T1, Aβ40 (Homo sapiens, UniProt P05067); test: ELISA binding between Aβ and LME peptides; details: Aβ40, n = 4, read-out: apparent Kd
T1 construct: purchased Peptide Institute
Experimental: (§2) The indicated amounts of LME-tet (8.3 µM) or LME-mono (33 µM) were applied onto each well of a regular 96-well ELISA plate (Thermo Fisher Scientific) and incubated overnight for 24 h. After blocking, the plate was incubated with various concentrations of Aβ1–28, Aβ40, or Aβ42 (Peptide Institute) for 2 h at room temperature. Bound Aβ was detected using mouse monoclonal anti-human Aβ antibody 82E1 (Immuno-Biological Laboratories Co., Ltd.) and HRP-conjugated horse anti-mouse IgG antibody (Cell Signaling Technology).

Aβ42 = target: T2, Aβ42 (Homo sapiens, UniProt P05067); test: ELISA binding between Aβ and LME peptides; details: Aβ42, n = 3, read-out: apparent Kd
T2 construct: purchased Peptide Institute
Experimental: as §2

7WD10 cells = test: Incorporation of biotinylated tetravalent peptides into 7WD10 cells, confocal microscopy; format: cell-based, Chinese Hamster; details: biotinylated peptide 50 µM, 37 °C, 1 h, Alexa Fluor 488-streptavidin
Experimental: Supplementary Fig. 10: Efficient incorporation of […] into cells.
7WD10 cells were cultured at 37° C for 1 h in the presence of biotinylated LME-tet or PME-tet
(50 µM). Biotinylated peptide was detected using Alexa Fluor 488-conjugated streptavidin.
Fluorescence images were obtained using confocal laser scanning microscopy to assess the
incorporation of tetravalent peptides into cells. The scale bars indicate 10 µm.

[2] = system: β-cleavage of St6gal1 in 7WD10-NotchΔE-St6gal1 cells; test: β-Secretase assay in cells (St6gal1 cleavage); format: cell-based, Chinese Hamster; details: 48 h, culture medium, western blot; β-secretase inhibitor II 10 µM
Experimental: as §1

T1 sequence (P05067 672-711 limits assumed): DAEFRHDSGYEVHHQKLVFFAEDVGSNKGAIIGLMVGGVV
T2 sequence (P05067 672-713 limits assumed): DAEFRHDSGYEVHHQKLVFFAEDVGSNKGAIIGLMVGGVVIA

C[C@H](NC(=O)Cc1cc(F)cc(F)c1)C(=O)N[C@H](C(=O)OC(C)(C)C)c1ccccc1 [DAPT]
production of NICD [1]: efficiently inhibits

CSCC[C@H](NC(=O)[C@H](CCCNC(=N)N)NC(=O)[C@H](CC(C)C)NC(=O)[C@H](CCCCN)NC(=O)[C@@H]1CCCN1)C(=O)N[C@@H](CCCCN)C(=O)N[C@@H](CCC(=O)O)C(=O)NCCCCCC(=O)NCCCC[C@H](NC(=O)CCCCCNC(=O)[C@H](CCC(=O)O)NC(=O)[C@H](CCCCN)NC(=O)[C@H](CCSC)NC(=O)[C@H](CCCNC(=N)N)NC(=O)[C@H](CC(C)C)NC(=O)[C@H](CCCCN)NC(=O)[C@@H]1CCCN1)C(=O)NCCCC[C@H](NC(=O)[C@H](CCCCNC(=O)CCCCCNC(=O)[C@H](CCC(=O)O)NC(=O)[C@H](CCCCN)NC(=O)[C@H](CCSC)NC(=O)[C@H](CCCNC(=N)N)NC(=O)[C@H](CC(C)C)NC(=O)[C@H](CCCCN)NC(=O)[C@@H]1CCCN1)NC(=O)CCCCCNC(=O)[C@H](CCC(=O)O)NC(=O)[C@H](CCCCN)NC(=O)[C@H](CCSC)NC(=O)[C@H](CCCNC(=N)N)NC(=O)[C@H](CC(C)C)NC(=O)[C@H](CCCCN)NC(=O)[C@@H]1CCCN1)C(N)=O [LME-tet] (I: H-PKLRMKE[Ahx]KK-NH2 / II: H-PKLRMKE[Ahx]K / III: H-PKLRMKE[Ahx] / IV: H-PKLRMKE[Ahx]; amide I:9-IV:C, I:10-II:C, II:9-III:C)
pKd (Aβ40): 5.57 | pKd (Aβ42): 6.70 | efficiency of incorporation into cells (7WD10 cells): much higher efficacy than PME-tet

CC(C)C[C@@H](C=O)NC(=O)[C@H](CC(C)C)NC(=O)[C@@H](NC(=O)OCc1ccccc1)C(C)C [β-secretase inhibitor II] (Cbz-Val-Leu-Leu-aldehyde)
production of extracellular St6gal1 fragment [2]: completely suppressed
